Measured values published in patent US7384657B2, “Composition of natural herb extract for treating cardiovascular disease and its method of preparation thereof” (priority 2004, dated 2008).
Read-outs that look alike come from different tables or passages of the source.

Key:
[1] = puerarin drops in patients of acute myocardial infarction; format: in vivo, human
β-receptor = assay: radioactive ligand analysis on myocardial membrane; format: binding, rats
Description: (§1) The effecter of β-receptor is the adenylate cyclase (AC). Excitant of the β-receptor can enable the AC to activate and the antagonist can cause it to inhibit. […] It points out puerarin is an antagonist of one type of β-receptors. It has the selective action on the heart's β-receptor. It can achieve various curative effects on the arrhythmia.

[2] = teratogenicity and mutagenicity in pregnant animals and male germ cells; format: in vivo, rats; details: 50 and 150 mg/kg
Experimental: Select 50 pregnant rats. Observe and analyze 450 pregnant mice. Choose 50 and 150 mg/kg as puerarin dosage. […] The deformation of appearance, organ or bone is not found in all the examined fetal mice. It proves neither the puerarin nor the solvent has mutagenic activity on the pregnant mice.

[3] = test system: TA97, TA98, TA100 and TA102; assay: Ames test; format: cell-based, typhoid Salmonella bacillus; details: 1, 5, 50, 500, 5000 μg per dish, S9 and non-S9
Experimental: Use TA97, TA98, TA100 and TA102 as testing strain; puerarin 1, 5, 50, 500, and 5000 μg as dish. In the experiment of S9 and non-S9, its reverse colonial mutation setting figure is basically the same, that is, mutation rate (MR)<2. It has no dosage-response relation. […] Use human microblood nutrient for culturing. Add human blood to the puerarin injection. Under the condition of isolated body, add S9 activation system, then, culture for 53 hours. […] Therefore, hereditary toxicity has not been indicated.

[4] = puerarin in dog with acute myocardial ischemia / coronary blockage; format: in vivo
Experimental: Effect of Puerarin upon the heart is studied. The main effect of Puerarin Pur is to change the myocardial ischemia. Apply intervenous injection of puerarin to the dog which contracts the acute myocardial ischemia. […] After the aortic pressure is adjusted to the level of pre-administration, tension-time index and the rising speed of left ventricular pressure also return to the level of pre-administration.
5 minutes after the midpoint of the anterior branch of the dog's coronary artery encountering acute blockage, intravenous injection of puerarin 20 mg/kg is administrated. […] The function lasts 3˜4 hours. It has no effect on LVSD. 15 minutes after the administration, the ST drops obviously. […] Electrocardiographic index reduces clearly and the pulmonary incarceration has not risen.

[5] = test system: artery's endothelial cell; assay: arterial endothelial cell culture; format: cell-based; details: puerarin 250 μg/ml, 6 hours, 36° C.
Experimental: The effect of puerarin on the arterial endothelial cell is also examined. Puerarin has very outstanding effect on the artery's endothelial cell. Add puerarin (250 μg/ml) to the cellular fluid, but no addition of puerarin in the control group. After 6 hours of culture at 36° C., determine the content of carboxylic proline in both the internal and the external fluid of the endothelial cells respectively. […] The content of carboxylic proline, in the […], drops to Experiment Group's 2.70±0.06 μg/ml and 2.43±0.21 μg/ml from 3.35±0.05 μg/ml and 2.68±0.15 μg/ml in the Control group's internal and external endothelial cells. With regards to osamine polysaccharide, it drops to Experiment Group's 0.95±0.12 μg/ml and 0.68±0.15 μg/ml from 1.77±0.12 μg/m and 1.57±0.08 μg/ml in the internal fluid of Control group. […] It regulates the permeability of the water solubility and the substance of plasma molecule. Besides having an effect on the selective barrier action, its complex enzyme system can synthesize and secrete many active substances such as PGI2.

[6] = arrhythmia caused by chloroform and the adrenal gland; format: in vivo, domestic rabbit
Description: The effect of puerarin on the rhythm of heart is examined. […] Obviously, it also […] the mean of ventricular premature heartbeat and ventricular tachycardia caused by ouabin.

[7] = absorption, distribution and excretion of puerarin in rats; format: in vivo
Description: The pharmacokinetics of puerarin is also studied. Absorption and distribution of medication of Puerarin are studied. […] External experiment proves puerarin's destruction in the enterogastric tract is very minor, but can be metabolized by the tissue of blood, liver, kidney and etc. It is also able to integrate with the liver, kidney, lung and plasma protein. Pharmacokinetics parameter of the rats's intravenous injection indicates puerarin's distribution in the body is vast and clears up fast. It is not easy to store.
(§2) Metabolism of medication of Puerarin is studied. 24 hours after the rats taken puerarin orally, 1.85% and 35.7% excreted as urine and stool. After the intravenous injection, 37.62%, 7.39% and 3.65% are secreted from the urine, stool and bile respectively. Absorption, by orally taking, is very little. 36 hours after puerarin is orally taken by normal person, only 0.78% […] secrete from the urine; 72 hours after the oral taking, 73.3% secrete from the stool.

[8] = puerarin: patient's blood 6-K-PGF1a, HDL, TXB2; format: in vivo, human; details: patients
Description: Puerarin can even heighten the patient's blood 6-K-PGF1a [6-acetone-PGF1a (prostaglandin-stable metabolism product)] and High Density Lipid (HDL) level. […] As a result, it enables the coronary artery and the peripheral blood vessel to expand, and therefore, it resists angina pectoris, reduces blood pressure, lowers myocardial oxygen consumption and improves the Ischemic ECG and etc.

[9] = mice and dog; cited from earlier work
[10] = test system: polychromatic erythrocytes; assay: polychromatic erythrocytes micronucleus; format: in vivo; details: every dosage group
adenylate cyclase = assay: activation of dissolved adenylate cyclase; format: biochemical
Description: as §1

[11] = excretion of oral puerarin in normal person; format: in vivo, human
Experimental: as §2

[12] = single intravenous injection 5 mg/kg; cited from earlier work

With Puerarin the myocardial index ([1]; 30 minutes and 2 hours after (p<0.01, P=0.05)) was “clearly reduces”, the “genesis rate of infarction expansion” value ([1]; human, in vivo) was “obviously lowers” and the “competition with the labeled ligand” value (β-receptor; conjugated competition) was “able to compete with the labeled ligand”. For the same substance, the “maximum combination capacity of the β-receptor” value (β-receptor; rats's myocardial membrane) was “clearly reduce the maximum combination capacity”, the “deformation of appearance, organ or bone of fetal mice” value [2] was “not found” and the “survival fetal number, absorption fetal number, weight, length, tail length versus control” value [2] was “no obvious difference”. For the same substance, the “mutation rate (MR)” value [3] was < 2, the “lowering of LVSD” value ([4]; 20 mg/kg i.v., 5 minutes after blockage) was 10.14% and the “myocardial infarction scope (N-BT)” value ([4]; 20 mg/kg i.v., 6 hours later) was “reduces significantly”. For the same substance, the aortic pressure ([4]; intravenous injection) was “lower the aortic pressure”, the “release of myocardial CPK” value ([4]; ischemia and reperfusion) was “lowers the release of myocardial CPK” and the “carboxylic proline, external fluid of endothelial cells” value [5] was 2.43 ± 0.21 µg/mL. For the same substance, the “carboxylic proline, internal fluid of endothelial cells” value [5] was 2.70 ± 0.06 µg/mL, the “osamine polysaccharide, first value (internal fluid)” value [5] was 0.95 ± 0.12 µg/mL and the “osamine polysaccharide, second value” [5] was 0.68 ± 0.15 µg/mL. The arrhythmic time [6] was “shorten the arrhythmic time”, the “secreted from the bile” value ([7]; intravenous injection) was 3.65% and the “secreted from the stool” value ([7]; intravenous injection) was 7.39%. The “secreted from the urine” value ([7]; intravenous injection) was 37.62%, the tissue content ([7]; intravenous injection) was “the content in kidney is highest, blood plasma takes second place and the brain has lesser” and the oral absorption ([7]; oral) was “absorbed faster but not complete”. The excreted as stool ([7]; oral, 24 hours) was 35.7%, the excreted as urine ([7]; oral, 24 hours) was 1.85% and the “medication volume retrieved from gastrointestinal substance and stool” value ([7]; oral, after 24 hours) was 37.3 % of the volume administrated. For the same substance, the “blood 6-K-PGF1a and High Density Lipid (HDL) level” value [8] was “heighten”, the “ratio of TXB2/6-K-PGF1a” value [8] was “reduces the ratio” and the pharmacokinetic model [9] was 3-ventricle open model. The “occurrence rate of polychromatic erythrocytes micronucleus versus negative contrast” value [10] was “no obvious difference”, the “adrenal gland's activation of dissolved adenylate cyclase” value (adenylate cyclase) was “completely inhibit” and the “secreted from the urine” value ([11]; 36 hours) was 0.78%. The “secreted from the stool” value ([11]; 72 hours) was 73.3% and the pharmacokinetic model [12] was 2-ventricle open model.
